Tests used:
Experiment in all cases: relative viability (nuclei count vs DMSO), 5 days (fraction); higher = more cells survive
NCI-H650 = test system: NCI-H650
Outline: (§1)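 Dosing by pin tool came one day after lung cancer cell lines were seeded in 1536-well plates, using either one drug or a fixed anchor-drug dose plus five library-drug doses (not always all listed) in √10 steps. After 5 days, nuclei were counted on 4× images. Relative viability is treated-well nuclei count divided by vehicle-well nuclei count, and values are medians of duplicate plates.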

LOU-NH91 = test system: LOU-NH91
Outline: as §1

HCC-78 = test system: HCC-78
Outline: as §1

NCI-H838 = test system: NCI-H838
Outline: as §1

NCI-H1734 = test system: NCI-H1734
Outline: as §1

NCI-H1395 = test system: NCI-H1395
Outline: as §1

NCI-H1915 = test system: NCI-H1915
Outline: as §1

NCI-H2023 = test system: NCI-H2023
Outline: as §1

A-427 = test system: A-427
Outline: as §1

NCI-H661 = test system: NCI-H661
Outline: as §1

NCI-H3122 = test system: NCI-H3122
Outline: as §1

NCI-H596 = test system: NCI-H596
Outline: as §1

HOP-62 = test system: HOP-62
Outline: as §1

SK-MES-1 = test system: SK-MES-1
Outline: as §1

HCC-366 = test system: HCC-366
Outline: as §1

NCI-H358 = test system: NCI-H358
Outline: as §1

COR-L23 = test system: COR-L23
Outline: as §1

EKVX = test system: EKVX
Outline: as §1

NCI-H1650 = test system: NCI-H1650
Outline: as §1

NCI-H2087 = test system: NCI-H2087
Outline: as §1

HCC-44 = test system: HCC-44
Outline: as §1

EPLC-272H = test system: EPLC-272H
Outline: as §1

`O=c1[nH]c2ccccc2n1C1CCN(CCCC(c2ccc(F)cc2)c2ccc(F)cc2)CC1` [Pimozide] + CS(=O)(=O)CCNCc1ccc(-c2ccc3ncnc(Nc4ccc(OCc5cccc(F)c5)c(Cl)c4)c3c2)o1 [Lapatinib] (partner 2 µM) showed a relative viability (NCI-H650; first compound 0.08 µM) of 1.03, a relative viability (NCI-H650; first compound 0.253 µM) of 0.861 and a relative viability (NCI-H650; first compound 0.8 µM) of 0.694. For the same compound, the relative viability (NCI-H650; first compound 2.53 µM) was 0.716, the relative viability (NCI-H650; first compound 8 µM) was 0.835 and the relative viability (LOU-NH91; first compound 0.08 µM) was 0.736. It also gave a relative viability (LOU-NH91; first compound 0.253 µM) of 0.694, a relative viability (LOU-NH91; first compound 0.8 µM) of 0.751 and a relative viability (LOU-NH91; first compound 2.53 µM) of 0.833. The relative viability (LOU-NH91; first compound 8 µM) was 0.785, the relative viability (HCC-78; first compound 0.08 µM) was 0.484 and the relative viability (HCC-78; first compound 0.253 µM) was 0.831. The relative viability (HCC-78; first compound 0.8 µM) was 0.54, the relative viability (HCC-78; first compound 2.53 µM) was 0.608 and the relative viability (HCC-78; first compound 8 µM) was 0.889. It also gave a relative viability (NCI-H838; first compound 0.08 µM) of 1.18, a relative viability (NCI-H838; first compound 0.253 µM) of 1.07 and a relative viability (NCI-H838; first compound 0.8 µM) of 0.954. For the same compound, the relative viability (NCI-H838; first compound 2.53 µM) was 0.822, the relative viability (NCI-H838; first compound 8 µM) was 0.829 and the relative viability (NCI-H1734; first compound 0.08 µM) was 1.04. For the same compound, the relative viability (NCI-H1734; first compound 0.253 µM) was 1.07, the relative viability (NCI-H1734; first compound 0.8 µM) was 0.978 and the relative viability (NCI-H1734; first compound 2.53 µM) was 0.96. The relative viability (NCI-H1734; first compound 8 µM) was 0.671, the relative viability (NCI-H1395; first compound 0.08 µM) was 0.966 and the relative viability (NCI-H1395; first compound 0.253 µM) was 1.17. It also gave a relative viability (NCI-H1395; first compound 0.8 µM) of 1.06, a relative viability (NCI-H1395; first compound 2.53 µM) of 0.756 and a relative viability (NCI-H1395; first compound 8 µM) of 0.838. For the same compound, the relative viability (NCI-H1915; first compound 0.08 µM) was 1.03, the relative viability (NCI-H1915; first compound 0.253 µM) was 0.927 and the relative viability (NCI-H1915; first compound 0.8 µM) was 0.585. The relative viability (NCI-H1915; first compound 2.53 µM) was 0.947, the relative viability (NCI-H1915; first compound 8 µM) was 0.926 and the relative viability (NCI-H2023; first compound 0.08 µM) was 0.793. It also gave a relative viability (NCI-H2023; first compound 0.253 µM) of 0.964, a relative viability (NCI-H2023; first compound 0.8 µM) of 0.592 and a relative viability (NCI-H2023; first compound 2.53 µM) of 0.729. It also gave a relative viability (NCI-H2023; first compound 8 µM) of 0.412, a relative viability (A-427; first compound 0.08 µM) of 0.941 and a relative viability (A-427; first compound 0.253 µM) of 1.03. The relative viability (A-427; first compound 0.8 µM) was 1.01, the relative viability (A-427; first compound 2.53 µM) was 0.911 and the relative viability (A-427; first compound 8 µM) was 0.985. The relative viability (NCI-H661; first compound 0.08 µM) was 0.46, the relative viability (NCI-H661; first compound 0.253 µM) was 0.464 and the relative viability (NCI-H661; first compound 0.8 µM) was 0.451. For the same compound, the relative viability (NCI-H661; first compound 2.53 µM) was 0.413, the relative viability (NCI-H661; first compound 8 µM) was 0.467 and the relative viability (NCI-H3122; first compound 0.08 µM) was 1. For the same compound, the relative viability (NCI-H3122; first compound 0.253 µM) was 1, the relative viability (NCI-H3122; first compound 0.8 µM) was 0.813 and the relative viability (NCI-H3122; first compound 2.53 µM) was 1. The relative viability (NCI-H3122; first compound 8 µM) was 1.01, the relative viability (NCI-H596; first compound 0.08 µM) was 1 and the relative viability (NCI-H596; first compound 0.253 µM) was 1.15. The relative viability (NCI-H596; first compound 0.8 µM) was 1.16, the relative viability (NCI-H596; first compound 2.53 µM) was 1.01 and the relative viability (NCI-H596; first compound 8 µM) was 0.87. For the same compound, the relative viability (HOP-62; first compound 0.08 µM) was 0.917, the relative viability (HOP-62; first compound 0.253 µM) was 1.09 and the relative viability (HOP-62; first compound 2.53 µM) was 0.995. The relative viability (HOP-62; first compound 8 µM) was 1.06, the relative viability (SK-MES-1; first compound 0.08 µM) was 0.468 and the relative viability (SK-MES-1; first compound 0.253 µM) was 0.445. The relative viability (SK-MES-1; first compound 0.8 µM) was 0.451, the relative viability (SK-MES-1; first compound 2.53 µM) was 0.491 and the relative viability (SK-MES-1; first compound 8 µM) was 0.507. The relative viability (HCC-366; first compound 0.08 µM) was 0.971, the relative viability (HCC-366; first compound 0.253 µM) was 1.02 and the relative viability (HCC-366; first compound 0.8 µM) was 0.988. It also gave a relative viability (HCC-366; first compound 2.53 µM) of 1.01, a relative viability (HCC-366; first compound 8 µM) of 1.06 and a relative viability (NCI-H358; first compound 0.08 µM) of 0.506. It also gave a relative viability (NCI-H358; first compound 0.253 µM) of 0.488, a relative viability (NCI-H358; first compound 0.8 µM) of 0.433 and a relative viability (NCI-H358; first compound 2.53 µM) of 0.477. It also gave a relative viability (NCI-H358; first compound 8 µM) of 0.4, a relative viability (COR-L23; first compound 0.08 µM) of 0.99 and a relative viability (COR-L23; first compound 0.253 µM) of 0.856. The relative viability (COR-L23; first compound 0.8 µM) was 0.881, the relative viability (COR-L23; first compound 2.53 µM) was 0.914 and the relative viability (COR-L23; first compound 8 µM) was 0.862. For the same compound, the relative viability (EKVX; first compound 0.253 µM) was 0.177, the relative viability (EKVX; first compound 0.8 µM) was 0.221 and the relative viability (EKVX; first compound 2.53 µM) was 0.216. For the same compound, the relative viability (EKVX; first compound 8 µM) was 0.464, the relative viability (NCI-H1650; first compound 0.08 µM) was 0.711 and the relative viability (NCI-H1650; first compound 0.253 µM) was 0.809. The relative viability (NCI-H1650; first compound 0.8 µM) was 0.451, the relative viability (NCI-H1650; first compound 2.53 µM) was 0.733 and the relative viability (NCI-H1650; first compound 8 µM) was 0.146. The relative viability (NCI-H2087; first compound 0.08 µM) was 0.999, the relative viability (NCI-H2087; first compound 0.253 µM) was 1.1 and the relative viability (NCI-H2087; first compound 0.8 µM) was 0.825. It also gave a relative viability (NCI-H2087; first compound 2.53 µM) of 1.06, a relative viability (NCI-H2087; first compound 8 µM) of 0.847 and a relative viability (HCC-44; first compound 0.08 µM) of 0.952. It also gave a relative viability (HCC-44; first compound 0.253 µM) of 1.08, a relative viability (HCC-44; first compound 0.8 µM) of 0.975 and a relative viability (HCC-44; first compound 2.53 µM) of 0.96. For the same compound, the relative viability (HCC-44; first compound 8 µM) was 0.888, the relative viability (EPLC-272H; first compound 0.08 µM) was 0.819 and the relative viability (EPLC-272H; first compound 0.253 µM) was 0.945. For the same compound, the relative viability (EPLC-272H; first compound 0.8 µM) was 0.716, the relative viability (EPLC-272H; first compound 2.53 µM) was 0.809 and the relative viability (EPLC-272H; first compound 8 µM) was 0.689.

Source: the supplement of paper PMC10307832
